Earlier results on one molecule are cited in article PMC11034360 (RSC Advances, 2024).

In this data set the test system is H460, MDA-MB 468, MDA-MB-231 and glioblastoma (BT-33). The note with it: comparison drug for Au(III) complexes; ref 45c.

What is called IC50 is the concentration that gives 50% inhibition. With `N.N.[Cl][Pt][Cl]` [cisplatin], the IC50 is 4.16 µM.
